pIC50: −log10 of the molar value.
Legend:
MAGL [1] = target: T1, MAGL (Mus musculus (Mouse), UniProt O35678); experiment: In vitro competitive activity-based protein profiling (mouse brain membrane fraction or cell lysates), MAGL band; type: biochemical; conditions: mouse proteome; for inhibition at 1 µM: read-out: MAGL % Inh 1 μM (mouse); for pIC50: competitive ABPP
Method: In Vitro Competitive Activity-Based Protein Profiling.
Proteomes (mouse brain membrane fraction or cell lysates) (50 μL, 1.0 mg/mL total protein concentration) were preincubated with varying concentrations of inhibitors at 37° C. After 30 min, FP—Rh (1.0 μL, 50 μM in DMSO) was added and the mixture was incubated for another 30 min at 37° C. Reactions were quenched with SDS loading buffer (50 μL-4×) and run on SDS-PAGE.

ABHD6 [2] = target: T2, ABHD6 (Mus musculus (Mouse), UniProt Q8R2Y0); experiment: In vitro competitive activity-based protein profiling (mouse brain membrane fraction or cell lysates), ABHD6 band; type: biochemical; conditions: mouse proteome; for inhibition at 1 µM: read-out: ABHD6 % Inh 1 μM (mouse); for pIC50: competitive ABPP
T2 sequence (Q8R2Y0 whole entry): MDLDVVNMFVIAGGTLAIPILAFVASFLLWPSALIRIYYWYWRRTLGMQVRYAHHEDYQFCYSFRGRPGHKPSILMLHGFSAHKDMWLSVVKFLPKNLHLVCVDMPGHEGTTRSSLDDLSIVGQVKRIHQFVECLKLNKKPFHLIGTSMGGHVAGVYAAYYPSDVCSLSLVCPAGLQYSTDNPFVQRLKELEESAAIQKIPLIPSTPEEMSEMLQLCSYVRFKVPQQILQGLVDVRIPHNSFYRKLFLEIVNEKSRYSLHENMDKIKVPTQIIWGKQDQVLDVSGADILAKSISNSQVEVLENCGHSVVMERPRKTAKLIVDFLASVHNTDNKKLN
In short: (§1)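 Mouse proteome samples (brain membrane fraction or cell lysate, 1.0 mg/mL protein) were pretreated with varying inhibitor concentrations and subsequently probed with fluorophosphonate-rhodamine, each step lasting 30 min at 37° C. Labelled proteins were separated by SDS-PAGE, and band fluorescence was imaged and quantified.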

FAAH [3] = target: T3, FAAH (Mus musculus (Mouse), UniProt O08914); experiment: In vitro competitive activity-based protein profiling (mouse brain membrane fraction or cell lysates), FAAH band; type: biochemical; conditions: mouse proteome; for inhibition at 1 µM: read-out: FAAH % Inh 1 μM (mouse); for pIC50: competitive ABPP
T3 sequence (O08914 whole entry): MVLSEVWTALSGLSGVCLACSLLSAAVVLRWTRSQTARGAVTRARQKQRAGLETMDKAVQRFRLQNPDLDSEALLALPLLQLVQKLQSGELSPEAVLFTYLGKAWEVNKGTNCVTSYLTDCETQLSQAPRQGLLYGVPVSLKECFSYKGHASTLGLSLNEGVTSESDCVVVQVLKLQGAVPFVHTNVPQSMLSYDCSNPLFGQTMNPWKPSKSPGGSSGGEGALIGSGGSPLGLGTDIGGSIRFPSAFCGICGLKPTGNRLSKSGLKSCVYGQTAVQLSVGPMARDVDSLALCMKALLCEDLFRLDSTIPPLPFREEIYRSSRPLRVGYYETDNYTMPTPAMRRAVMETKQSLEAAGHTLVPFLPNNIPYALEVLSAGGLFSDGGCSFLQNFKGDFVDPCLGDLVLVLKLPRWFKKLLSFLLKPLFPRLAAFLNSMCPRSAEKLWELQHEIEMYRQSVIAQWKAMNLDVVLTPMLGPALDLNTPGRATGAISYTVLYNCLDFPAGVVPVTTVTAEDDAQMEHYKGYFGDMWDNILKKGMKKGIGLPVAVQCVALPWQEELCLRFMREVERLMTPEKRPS
In short: as §1

MAGL [4] = target: T1, MAGL; experiment: Mouse brain proteomes from inhibitor treated mice (oral gavage, sacrificed 4 h after administration, ABPP analysis); type: in vivo, mouse (C57Bl/6J); conditions: 5 mg/kg oral gavage
In short: (§2)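 Oral dosing of C57Bl/6J wild-type mice at 5 mg/kg, brain collection 4 h afterwards, then ABPP of brain proteomes to give % target inhibition.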

FAAH [5] = target: T3, FAAH; experiment: Mouse brain proteomes from inhibitor treated mice (oral gavage, sacrificed 4 h after administration, ABPP analysis), FAAH; type: in vivo, mouse (C57Bl/6J); conditions: 5 mg/kg oral gavage
In short: as §2

ABHD6 [6] = target: T2, ABHD6; experiment: Mouse brain proteomes from inhibitor treated mice (oral gavage, sacrificed 4 h after administration, ABPP analysis), ABHD6; type: in vivo, mouse (C57Bl/6J); conditions: 5 mg/kg oral gavage
In short: as §2

T1 sequence (O35678 whole entry): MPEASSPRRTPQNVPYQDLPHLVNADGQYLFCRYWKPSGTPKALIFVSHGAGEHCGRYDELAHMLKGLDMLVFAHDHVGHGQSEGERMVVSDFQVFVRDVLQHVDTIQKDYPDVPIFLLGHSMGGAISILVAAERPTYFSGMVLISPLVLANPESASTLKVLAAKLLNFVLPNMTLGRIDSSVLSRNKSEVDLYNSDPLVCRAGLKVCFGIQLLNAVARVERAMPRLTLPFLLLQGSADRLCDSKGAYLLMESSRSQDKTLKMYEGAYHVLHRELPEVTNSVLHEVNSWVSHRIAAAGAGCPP

inhibition at 1 µM (MAGL [1])	pIC50 (MAGL [1])	inhibition at 1 µM (ABHD6 [2])	pIC50 (ABHD6 [2])	inhibition at 1 µM (FAAH [3])	pIC50 (FAAH [3])	MAGL % Inh 5 mg/kg (mouse) (MAGL [4])	FAAH % Inh 5 mg/kg (mouse) (FAAH [5])	ABHD6 % Inh 5 mg/kg (mouse) (ABHD6 [6])	Structure (SMILES)
> 75%	> 7.00	25 to 75%	< 6.00	25 to 75%	< 6.00	### (### is ≥75%)	### (### is ≥75%)	# (# is <25%)	O=C(OC(C(F)(F)F)C(F)(F)F)N1CCC2(CCCN2Cc2cccc(Cl)c2)CC1 [Example 61, 1,1,1,3,3,3-Hexafluoropropan-2-yl 1-(3-chlorobenzyl)-1,8-diazaspiro[4.5]decane-8-carboxylate]
> 75%	> 7.00	< 25%	< 6.00	< 25%	< 6.00	# (# is <25%)	# (# is <25%)	# (# is <25%)	CS(=O)(=O)N1CCN(c2cc(C(F)(F)F)ccc2CN2CCCC23CCN(C(=O)OC(C(F)(F)F)C(F)(F)F)CC3)CC1 [Example 89, 1,1,1,3,3,3-Hexafluoropropan-2-yl 1-(2-(4-(methylsulfonyl)piperazin-1-yl)-4-(trifluoromethyl)benzyl)-1,8-diazaspiro[4.5]decane-8-carboxylate]
> 75%	> 7.00	< 25%	< 6.00	< 25%	< 6.00	### (### is ≥75%)	# (# is <25%)	# (# is <25%)	CCOc1cc(CN2CCCC23CCN(C(=O)OC(C(F)(F)F)C(F)(F)F)CC3)ccc1Cl [Example 32, 1,1,1,3,3,3-Hexafluoropropan-2-yl 1-(4-chloro-3-ethoxybenzyl)-1,8-diazaspiro[4.5]decane-8-carboxylate]
> 75%	> 7.00	< 25%	< 6.00	< 25%	< 6.00	### (### is ≥75%)	# (# is <25%)	# (# is <25%)	Cc1c(CN2CCCC23CCN(C(=O)OC(C(F)(F)F)C(F)(F)F)CC3)cccc1N1CCCC1 [Example 85, 1,1,1,3,3,3-Hexafluoropropan-2-yl 1-(2-methyl-3-(pyrrolidin-1-yl)benzyl)-1,8-diazaspiro[4.5]decane-8-carboxylate]
	6.00 to 7.00		< 6.00		< 6.00	### (### is ≥75%)	# (# is <25%)	# (# is <25%)	O=C(OC(C(F)(F)F)C(F)(F)F)N1CCC2(CCCN2Cc2cccc(OCCF)c2)CC1 [Example 27, 1,1,1,3,3,3-Hexafluoropropan-2-yl 1-(3-(2-fluoroethoxy)benzyl)-1,8-diazaspiro[4.5]decane-8-carboxylate]
> 75%	> 7.00	< 25%	< 6.00	< 25%	< 6.00	# (# is <25%)	# (# is <25%)	# (# is <25%)	CS(=O)(=O)NC1CCN(c2cc(Cl)ccc2CN2CCCC23CCN(C(=O)OC(C(F)(F)F)C(F)(F)F)CC3)CC1 [Example 105, 1,1,1,3,3,3-Hexafluoropropan-2-yl 1-(4-chloro-2-(4-(methylsulfonamido)piperidin-1-yl)benzyl)-1,8-diazaspiro[4.5]decane-8-carboxylate]
> 75%	> 7.00	< 25%	< 6.00	< 25%	< 6.00	### (### is ≥75%)	# (# is <25%)	# (# is <25%)	O=C(OC(C(F)(F)F)C(F)(F)F)N1CCC2(CCCN2Cc2ccc(Cl)cc2N2CCC(F)(F)CC2)CC1 [Example 101, 1,1,1,3,3,3-Hexafluoropropan-2-yl 1-(4-chloro-2-(4,4-difluoropiperidin-1-yl)benzyl)-1,8-diazaspiro[4.5]decane-8-carboxylate]

Structure (SMILES)	inhibition at 1 µM (MAGL [1])	pIC50 (MAGL [1])	inhibition at 1 µM (ABHD6 [2])	pIC50 (ABHD6 [2])	inhibition at 1 µM (FAAH [3])	pIC50 (FAAH [3])	MAGL % Inh 5 mg/kg (mouse) (MAGL [4])	FAAH % Inh 5 mg/kg (mouse) (FAAH [5])	ABHD6 % Inh 5 mg/kg (mouse) (ABHD6 [6])
O=C(OC(C(F)(F)F)C(F)(F)F)N1CCC2(CCN(Cc3ccc(C(F)(F)F)cc3N3CCCCC3)C2)CC1 [Example 23, 1,1,1,3,3,3-Hexafluoropropan-2-yl 2-(2-(piperidin-1-yl)-4-(trifluoromethyl)benzyl)-2,8-diazaspiro[4.5]decane-8-carboxylate]	> 75%	> 7.00	< 25%	< 6.00	< 25%	< 6.00	## (## is equal to or greater than 25% but less than 75%)	# (# is <25%)	# (# is <25%)
O=C(OC(C(F)(F)F)C(F)(F)F)N1CCC2(CCN(Cc3ccc(C(F)(F)F)cc3N3CC4COCC4C3)C2)CC1 (stereo not drawn) [Example 26, 1,1,1,3,3,3-Hexafluoropropan-2-yl 2-(2-(tetrahydro-1H-furo[3,4-c]pyrrol-5(3H)-yl)-4-(trifluoromethyl)benzyl)-2,8-diazaspiro[4.5]decane-8-carboxylate]	> 75%	> 7.00	≥ 75%	6.00 to 7.00	< 25%	< 6.00	## (## is equal to or greater than 25% but less than 75%)	# (# is <25%)	# (# is <25%)
O=C(OC(C(F)(F)F)C(F)(F)F)N1CCC2(CCCN2Cc2cc(Oc3cccnc3)cc(C(F)(F)F)c2)CC1 [Example 174, 1,1,1,3,3,3-Hexafluoropropan-2-yl 1-(3-(pyridin-3-yloxy)-5-(trifluoromethyl)benzyl)-1,8-diazaspiro[4.5]decane-8-carboxylate]	> 75%	> 7.00	25 to 75%	< 6.00	< 25%	< 6.00	## (## is equal to or greater than 25% but less than 75%)	# (# is <25%)	# (# is <25%)
O=C(OC(C(F)(F)F)C(F)(F)F)N1CCC2(CCN(Cc3ccc(Cl)cc3N3CCOCC3)C2)CC1 [Example 21, 1,1,1,3,3,3-Hexafluoropropan-2-yl 2-(4-chloro-2-morpholinobenzyl)-2,8-diazaspiro[4.5]decane-8-carboxylate]	> 75%	> 7.00	≥ 75%	6.00 to 7.00	< 25%	< 6.00	### (### is ≥75%)	# (# is <25%)	## (## is equal to or greater than 25% but less than 75%)
O=C(OC(C(F)(F)F)C(F)(F)F)N1CCC2(CCCN2Cc2ccc(C(F)(F)F)cc2N2CCC(F)(F)CC2)CC1 [Example 90, 1,1,1,3,3,3-Hexafluoropropan-2-yl 1-(2-(4,4-difluoropiperidin-1-yl)-4-(trifluoromethyl)benzyl)-1,8-diazaspiro[4.5]decane-8-carboxylate]	> 75%	> 7.00	< 25%	< 6.00	< 25%	< 6.00	## (## is equal to or greater than 25% but less than 75%)	# (# is <25%)	# (# is <25%)
COc1c(Cl)cccc1CN1CCCC12CCN(C(=O)OC(C(F)(F)F)C(F)(F)F)CC2 [Example 10, 1,1,1,3,3,3-Hexafluoropropan-2-yl 1-(3-chloro-2-methoxybenzyl)-1,8-diazaspiro[4.5]decane-8-carboxylate]		> 7.00		< 6.00		< 6.00	### (### is ≥75%)	## (## is equal to or greater than 25% but less than 75%)	# (# is <25%)
CS(=O)(=O)N1CCc2cccc(CN3CCCC34CCN(C(=O)OC(C(F)(F)F)C(F)(F)F)CC4)c2C1 [Example 146, 1,1,1,3,3,3-Hexafluoropropan-2-yl 1-((2-methanesulfonyl-1,2,3,4-tetrahydroisoquinolin-8-yl)methyl)-1,8-diazaspiro[4.5]decane-8-carboxylate]	> 75%	> 7.00	25 to 75%	< 6.00	< 25%	< 6.00	### (### is ≥75%)	# (# is <25%)	## (## is equal to or greater than 25% but less than 75%)

Reference: patent US10030020B2, “Spirocycle compounds and methods of making and using same” (Abide Therapeutics, Inc., priority 2016, dated 2018)
